Experimental data taken from patent publication US11524950B2, “Treatment of immune-related and inflammatory diseases” (Celgene Corporation, priority 2012, dated 2022).

How the values were obtained:
[1] = tested on: DBA/2 mice; assay: Bleomycin-induced dermal fibrosis mouse model (prevention); assay type: in vivo; details: 30 mg/kg, PO, QD
Method: DBA/2 mice were used in this study. Eight animals were used per treatment group in the study. Mice were kept in the animal house under standard conditions with food and water ad libidum.
The vehicle, 0.5% carboxymethyl cellulose (CMC)/0.25% Tween 80, was prepared in distilled H2O and dissolved overnight on a magnetic stirrer (add 0.5 g CMC; Sigma #C9481) and 0.25 ml Tween 80 (Sigma #P8074) to 99.75 ml to make a total of 100 ml 0.5% CMC/0.25% Tween 80).
The compound was suspended, not dissolved, in this vehicle. The formulation was homogenized with a Teflon pestle and mortar (Potter-Elvehjem tissue grinder) using a motorized Eberbach tissue homogenizer. The daily drug stock concentration used in these studies was 3 mg/ml.
Bleomycin was obtained from the pharmacy of the University of Erlangen-Nuremberg and freshly prepared once a week. Skin fibrosis was induced in 6-week-old DBA mice by local intracutaneous injections of 100 μl of bleomycin dissolved in 0.9% NaCl, at a concentration of 0.5 mg/ml, every other day in defined areas of 1.5 cm^2 on the upper back.
The mouse model of bleomycin induced dermal fibrosis is widely used to evaluate anti-fibrotic therapeutics. In this model, a localized dermal fibrosis is induced by intradermal injections with bleomycin every other day for 3 weeks. This model resembles early, inflammatory stages of SSc. To evaluate potential effects on prevention of fibrosis, treatment was initiated simultaneously with the first bleomycin injection. […] Treatment consisted of administration of the vehicle (0.5% CMC/0.25% Tween 80). • Untreated bleomycin group: Intradermal injection of bleomycin for three weeks. […] Injection of Imatinib (50 mg/kg; IP, QD). […] See Akhmetshina A. et al., Arthritis Rheum 2009; 60(1):219-224.
Dermal thickness was determined by staining with hematoxylin and eosin and activated fibroblasts by using immunohistochemistry for alpha smooth muscle actin (α-SMA). The dermal thickness, as determined by the modified Rodnan Skin Score, is currently the most common primary outcome in human clinical trials for anti-fibrotic agents in SSc. […] Dermal thickness was analyzed with a Nikon Eclipse 80i microscope (Nikon, Badhoevedorp, The Netherlands) by measuring the maximal distance between the epidermal-dermal junction and the dermal-subcutaneous fat junction at 4 different skin sections in each mouse. […]
For quantification of myofibroblasts, skin sections were deparaffinized and incubated with 5% bovine serum albumin for 60 minutes. Cells positive for α-SMA were detected by incubation with monoclonal anti-α-SMA antibodies (clone 1A4; Sigma-Aldrich, Steinheim, Germany) for 2 hours at room temperature followed by incubation with 3% hydrogen peroxide for 10 minutes. […]

[2] = tested on: CD83; assay: CD83 expression in B cell differentiation culture (flow cytometry); assay type: cell-based, human
Method: Immunophenotyping For Flow Cytometric Analysis: Cells were stained using multicolor direct immunofluorescence stain for flow cytometric analysis. Surface staining was performed before cell fixation and permeabilization. Cells (50 μl; 1×10^6 cells/ml in washing buffer, 2% FBS with 0.1% NaN3 in PBS) were used for each staining. The cells were stained with isotype control mAb ([…]) and multicolor FITC-conjugated anti-CD20 mAb and PE-conjugated anti-CD38 mAb, or PerCP-Cy5.5 conjugated anti-CD44 mAb, PE-conjugated anti-CD83 mAb were used for day 4 activated B cells (CD20+CD38-cells), and day 4 PBs and day 7 PBs (CD20-CD38+), and other staining, analyzed by flow cytometry as per manufacturer's instructions. The intracellular staining of transcription factor proteins (BCL-6, IRF-4, BLIMP-1, PAX-5 and XBP-1) and IgJ was performed according to the manufacturer's recommendations. Flow cytometric analysis was performed with a FACSCanto using FACSDiva 6 (BD Biosciences). For data analysis, Flowjo (Tree Star) software was used.
Using the same B cells in vitro differentiation system, the activity of the test compound on CD44 and CD83 expression in B cell differentiation was further investigated. Multicolor FITC-conjugated anti-CD20 mAb, PerCP Cy5.5-conjugated anti-CD44 mAb and PE-conjugated anti-CD83 mAb are used for day 4 and day 7 cells. The effect of the test compound was evaluated from 3 separate experiments representative of 3 donors.

SMILES: O=C1CC[C@H](N2Cc3c(OCc4ccc(CN5CCOCC5)cc4)cccc3C2=O)C(=O)N1 [Test compound, (S)-3-[4-(4-morphlin-4-ylmethylbenzyloxy)-1-oxo-1,3-dihydro-isoindo-2-yl]piperidine-2,6-dione]
- prevention of dermal thickening ([1]; 3 weeks, p<0.001): approximately 25±0.49%
- reduction of number of α-SMA+ myofibroblasts ([1]; p<0.05): 24±0.09%
- total CD83+ cell population [2]: significantly increased
- percentage of CD83+ cells ([2]; Day 4, 2 nM, DMSO 13.4%±2.4%): 24.1%
- percentage of CD83+ cells ([2]; Day 4, 20 nM, DMSO 13.4%±2.4%): 40.2%
- percentage of CD83+ cells ([2]; Day 4, 200 nM, DMSO 13.4%±2.4%): 49.5%
- percentage of CD83+ cells ([2]; Day 7, 2 nM, DMSO […]±3.3): 16.3%
- percentage of CD83+ cells ([2]; Day 7, 20 nM, DMSO […]±3.3): 36.1%
- percentage of CD83+ cells ([2]; Day 7, 200 nM, DMSO […]±3.3): 51.9%
